This is an account of results in US20150038430A1, “THERAPEUTIC PEPTIDOMIMETIC MACROCYCLES” (AILERON Therapeutics, Inc., priority 2008, published 2015).

Molecules are shown by their SMILES.

The test system of one assay is A375. The format is cell-based, human. Conditions: 24 h. Here is the method:
(§1) Cell viability assays shown in FIGS. 34-52 were performed according to a similar protocol. Cells were split at optimal cell density a day prior to the initiation of the study. The next day, cells were washed twice in serum-free Opti-MEM media and 4000 cells/well were added to each well in a final volume of […] Opti-MEM. For serum-free experiments, macrocycles were diluted from 2 mM stocks (100% DMSO) in sterile water to prepare 400 μM working solutions. A 40 μM solution was then generated by ten-fold dilution in assay buffer. The macrocycle and controls were then serially diluted two-fold in assay buffer in dosing plates to provide concentrations between 1.2 and 40 μM, respectively. For experiments in 2% human serum, macrocycles were diluted from 10 mM stocks (100% DMSO) in sterile water to prepare 1 mM working solutions. A 100 μM solution was generated by ten-fold dilution in assay buffer. The macrocycles and controls were then serially diluted two-fold in assay buffer in dosing plates to provide concentrations between 3 and 100 μM, respectively. 50 μl of each dilution was then added to the appropriate wells of the test plate to achieve final concentrations of the macrocycle between 0.6 to 20 μM (for serum free experiment) or 1.5 to 50 μM (for 2% serum experiment), respectively. Controls included wells without macrocycles containing the same concentration of DMSO as the macrocycle-containing wells, wells containing 0.1% Triton X-100, and wells containing no cells. Plates were incubated for 24 hours at 37° C. in a humidified 5% CO2 atmosphere. At the end of a 24 hr incubation period, a CellTiter-Glo Luminescent Cell Viability Assay was performed according to manufacturer's instructions (Promega, catalog #G7571) and the luminescence was measured using a BIO-TEK synergy HT Plate reader. Values were plotted as percent viable, i.e. as a percentage of the negative control value (derived from cells exposed to DMSO only). All assays were performed in duplicate.
(§2) The following tables summarize the EC50 values (μM) observed with peptidomimetic macrocycles of the invention in various cell lines: […]

For a further assay, the system named is DHL-6. In kind it is cell-based, human. Conditions: 24 h. As to the method:
as §1, §2

The next assay deals with Jurkat. In kind it is cell-based, human. Conditions: 24 h. As to the method:
as §1, §2

In a further assay the test system is MDA-MB231-Met. The format is cell-based, human. Conditions: 24 h. As to the method:
as §1, §2

The next assay relates to MM1S. The format is cell-based, human. Conditions: 24 h. As to the method:
as §1, §2

For the next assay, the system named is Molt-4. In kind it is cell-based, human. Conditions: 24 h. Here is the method:
as §1, §2

The next assay concerns NCI-H82 (SCLC-MCL1+). The format is cell-based, human. Conditions: 24 h. Here is the method:
as §1, §2

For another assay, the system named is OVCAR8. In kind it is cell-based, human. Conditions: 24 h. Here is the method: as §1, §2
For another assay, the system named is PC3. The format is cell-based, human. Conditions: 24 h. As to the method: as §1, §2
The next assay concerns RS4;11. The format is cell-based, human. Conditions: 24 h. Here is the method:
as §1, §2

The test system of another assay is Raji. In kind it is cell-based, human. Conditions: 24 h. Here is the method: as §1, §2
For another assay, the system named is SEMK2. The format is cell-based, human. Conditions: 24 h. Here is the method: as §1, §2
In a further assay the target is T1, BAX (Homo sapiens, UniProt Q07812).
T1 construct: endogenous in cells; host or cells: MM1S multiple myeloma cells (lysate)
T1 sequence (Q07812 whole entry): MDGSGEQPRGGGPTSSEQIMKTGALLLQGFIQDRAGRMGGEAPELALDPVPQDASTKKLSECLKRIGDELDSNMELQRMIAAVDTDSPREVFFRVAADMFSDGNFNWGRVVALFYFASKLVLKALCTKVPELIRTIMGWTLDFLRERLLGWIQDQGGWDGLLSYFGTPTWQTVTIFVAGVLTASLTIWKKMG
Kind of assay: Immunoprecipitation in MM1S cell lysates. The format is binding. Conditions: multiple myeloma (MM1S) cell lysates. As to the method: It is possible to measure binding of peptides or peptidomimetic macrocycles to their natural acceptors in cell lysates or intact cells by immunoprecipitation and pull-down experiments. For example, intact cells are incubated with fluoresceinated (FITC-labeled) or biotinylated compounds for 4 hrs in the absence of serum, followed by serum replacement and further incubation that ranges from 4-18 hrs. Alternatively, cells can be incubated for the duration of the experiment in Opti-MEM (Invitrogen). Cells are then pelleted and incubated in lysis buffer (50 mM Tris [pH 7.6], 150 mM NaCl, 1% CHAPS and protease inhibitor cocktail) for 10 minutes at 4° C. 1% NP-40 or Triton X-100 may be used instead of CHAPS. Extracts are centrifuged at 14,000 rpm for 15 minutes and supernatants collected and incubated with 10 μl goat anti-FITC antibody or streptavidin-coated beads for 2 hrs, rotating at 4° C. followed by further 2 hrs incubation at 4° C. with protein A/G Sepharose (50 μl of 50% bead slurry).). No secondary step is necessary if using streptavidin beads to pull down biotinylated compounds. […]

The next assay has as its target Bcl-xL (Homo sapiens, UniProt Q07817). The experiment in a line: Protein-ligand binding experiment (SEC-LC-MS). Conditions: 1 μM macrocycle plus 5 μM Bcl-xL, 60 min room temperature. As to the method:
Protein-ligand binding experiments were conducted according to the following representative procedure outlined for a system-wide control experiment using 1 μM SP-4 plus 5 μM Bcl-xL. A 1 μl DMSO aliquot of a 40 μM stock solution of peptidomimetic macrocycle was dissolved in 19 μl of PBS (Phosphate-buffered saline: 50 mM, pH 7.5 Phosphate buffer containing 150 mM NaCl). The resulting solution was mixed by repeated pipetting and clarified by centrifugation at 10 000 g for 10 min. To a 4 μl aliquot of the resulting supernatant was added 4 μl of 10 μM BCL-xL in PBS. Each 8.0 μl experimental sample thus contained 40 pmol (1.5 μg) of protein at 5.0 μM concentration in PBS plus 1 μM peptidomimetic macrocycle and 2.5% DMSO. Duplicate samples thus prepared for each concentration point were incubated for 60 min at room temperature, and then chilled to 4° C. prior to size-exclusion chromatography-LC-MS analysis of 5.0 μL injections. Samples containing a target protein, protein-ligand complexes, and unbound compounds were injected onto an SEC column, where the complexes were separated from non-binding component by a rapid SEC step. The SEC column eluate was monitored using UV detectors to confirm that the early-eluting protein fraction, which elutes in the void volume of the SEC column, was well resolved from unbound components that are retained on the column. […]

Chain of Bcl-xL (Q07817 whole entry): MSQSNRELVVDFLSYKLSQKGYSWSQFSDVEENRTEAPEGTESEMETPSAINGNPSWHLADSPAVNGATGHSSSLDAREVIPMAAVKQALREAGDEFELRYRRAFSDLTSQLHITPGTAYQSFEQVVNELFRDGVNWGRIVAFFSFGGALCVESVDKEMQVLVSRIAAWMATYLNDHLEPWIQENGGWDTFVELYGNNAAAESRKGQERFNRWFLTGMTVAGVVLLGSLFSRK

Take `CC[C@H](C)[C@H](NC(C)=O)C(=O)N[C@@H](Cc1c[nH]c2ccccc12)C(=O)N[C@H](C(=O)N[C@@H](C)C(=O)N[C@@H](CCC(N)=O)C(=O)N[C@@H](CCC(=O)O)C(=O)N[C@@H](CC(C)C)C(=O)N[C@@H](CCCNC(=N)N)C(=O)NC1(C)CCCC=CCCCC(C)(C(=O)N[C@@H](Cc2ccccc2)C(=O)N[C@@H](CC(N)=O)C(=O)N[C@@H](C)C(=O)N[C@@H](Cc2ccc(O)cc2)C(=O)N[C@@H](Cc2ccc(O)cc2)C(=O)N[C@@H](C)C(=O)N[C@@H](CCCNC(=N)N)C(=O)N[C@@H](CCCNC(=N)N)C(N)=O)NC(=O)[C@H](CC(=O)O)NC(=O)CNC(=O)[C@H]([C@@H](C)CC)NC1=O)[C@@H](C)CC` (some centres unmarked) [SP-4]: the EC50 stood at 8 µM in the assay on A375; 3.8 µM in the assay on DHL-6; 1.6 µM with Jurkat; 8.5 µM with MDA-MB231-Met; 4.9 µM in the assay on MM1S; 2.2 µM with Molt-4. Moreover, the concentration for a half-maximal effect (EC50) in the assay with NCI-H82 (SCLC-MCL1+) is 4.9 µM; with OVCAR8, 20 µM; in the assay with PC3 it was 5 µM; with RS4;11, 10 µM; in the assay on Raji it was 9 µM; with SEMK2, 4 µM. The “binding to pro-apoptotic target protein BAX” value at BAX is “sequence-specific and structure-specific binding”. On Bcl-xL, the “detection of protein-ligand complex with Bcl-xL” value is “detection of the protein-ligand complex”.
